Assay results published in ChEMBL document CHEMBL1133289, “The binding of cocaine to cyclodextrins” (Bioorg Med Chem Lett, 2000).

What was measured:
[1] = Binding constant towards Beta-cyclodextrin
[2] = (§1) Binding constant towards Beta-cyclodextrin at pH 7.4 in unbuffered water at 25 C in a one-to-one complex
[3] = Binding constant towards alpha-cyclodextrin
[4] = Binding constant towards gamma-cyclodextrin
[5] = as §1; remark: listed apart in the source

Compound	Binding constant [1]	Binding constant [2]	Binding constant [3]	Binding constant [4]	Kd [5]
CN1[C@@H]2CC[C@H]1C[C@H](OC(=O)c1ccccc1)C2 (stereo in doubt; 8)	1120 M⁻¹				
CN1[C@@H]2CC[C@H]1C[C@H](OC(=O)c1ccccc1)C2 (stereo in doubt; 9)	500 M⁻¹				
COC(=O)[C@H]1[C@@H](OC(=O)c2ccccc2)C[C@@H]2CC[C@H]1N2C [COCAINE]		570 M⁻¹	< 60 M⁻¹	< 60 M⁻¹	1750 µM
